According to publication PMC8771711, “Synthesis of Lasalocid-Based Bioconjugates and Evaluation of Their Anticancer Activity” (ACS Omega, 2022):

Experiments:
[1] = test system: PC3 cells; assay: Annexin V-FITC/PI binding assay (flow cytometry) in PC3; type: cell-based, human; conditions: IC50 concentration, 72 h
Experimental: (§1) The SW480, SW620, PC3, and HaCaT cells were cultured and harvested under the conditions mentioned in the Section 4.5 and seeded in 12-well plates (1 × 10^5 cells per well). […] The apoptotic effect was performed using the Annexin V-FITC/propidium iodide (PI) apoptosis assay kit (Becton Dickinson, Pharmingen), according to the manufacturer’s instructions, and analyzed by flow cytometry (Becton Dickinson). The cells which were Annexin V-FITC-positive and PI-negative were identified as early apoptotic and both Annexin V-FITC- and PI-positive as late apoptotic or necrotic. The experiment was repeated three times.

[2] = test system: SW480 cells; assay: Annexin V-FITC/PI binding assay (flow cytometry) in SW480; type: cell-based, human; conditions: IC50 concentration, 72 h
Experimental: as §1

[3] = test system: SW480, human primary colon cancer cell line; assay: MTT assay, cytotoxicity in SW480; type: cell-based; conditions: for IC50: Homo sapiens, SW480, MTT, 72 h, mean ± SD; for SW480 SI (selectivity index): SI = IC50 HaCaT / IC50 SW480
Experimental: (§2) The human cell lines SW480 (primary colon cancer), SW620 (lymph node metastatic colon cancer from the same patient as primary cancer cells), PC3 (metastatic prostate cancer), and HaCaT (immortalized keratinocytes) were obtained from the American Type Culture Collection (ATCC, Rockville, USA). The SW480 and SW620 cells were grown in MEM (ThermoSci, USA), PC3 in RPMI 1640, and HaCaT in DMEM High Glucose (Biowest SAS, France) supplemented with 10% foetal bovine serum (FBS), HEPES (20 mM), and antibiotics (100 U mL^–1 of penicillin and 100 μg mL^–1 of streptomycin). The cells were incubated in a humidified incubator at 37 °C/5% CO2, until 80–90% confluence was reached.
(§3) The cell viability was assessed by using of MTT salt [3-(4,5-dimethylthiazol-2-yl)-2,5-diphenyltetrazolium bromide] converted by mitochondrial dehydrogenase, occurring in living cells. The cells were seeded in 96-well plates at a density of 1 × 10^4 cells per well and allowed to adhere for 24 h at 37 °C in a CO2 humidified incubator. Then, the medium was removed and a fresh medium with various concentrations of tested compounds (from 10 to 120 μM) was added. The untreated cells were used as the control.
(§4) After 72 h incubation, the medium was replaced with 200 μL per well of free serum medium containing 0.5 mg mL^–1 MTT and incubated for 4 h at 37 °C in a CO2 humidified incubator. Subsequently, the medium was removed and dimethyl sulfoxide with isopropanol (1:1) was added to dissolve the formazan crystals. The optical density was measured using a UVM 340 reader (ASYS Hitech GmbH, Austria) at a wavelength of 570 nm. The experiments were repeated three times. The cell viability was calculated as the percent of MTT reduced in treated cells versus control cells (untreated cells). The number of viable cells cultured without tested compounds was assumed as 100%. The decreased relative MTT level indicates decreased cell viability. The IC50 values were estimated using CompuSyn version 1.0.

[4] = test system: HaCaT, human immortalized keratinocyte cell line; assay: MTT assay, cytotoxicity in HaCaT; type: cell-based; conditions: Homo sapiens, HaCaT, 72 h, mean ± SD, nontumor cells
Experimental: as §2, §3, §4

[5] = test system: SW620, human metastatic colon cancer cell line; assay: MTT assay, cytotoxicity in SW620; type: cell-based; conditions: for IC50: Homo sapiens, SW-620, MTT, 72 h, mean ± SD; for SW620 SI (selectivity index): SI = IC50 HaCaT / IC50 SW620
Experimental: as §2, §3, §4

[6] = test system: PC3, human prostate cancer cell line; assay: MTT assay, cytotoxicity in PC3; type: cell-based; conditions: for IC50: Homo sapiens, MTT, 72 h, mean ± SD; for PC3 SI (selectivity index): SI = IC50 HaCaT / IC50 PC3
Experimental: as §2, §3, §4

[7] = test system: IL-6 in PC3 cells; assay: Interleukin-6 assay (ELISA) in PC3; type: cell-based, human; conditions: IC50 concentration, 72 h, ELISA of culture supernatant, p ≤ 0.001
Experimental: (§5) The level of interleukin-6 (IL-6) in SW480, SW620, and PC3 cell lines was measured by commercial human IL-6 ELISA kits Diaclon SAS (Besancon Cedex, France). […] The untreated cells were used as the control. The IL-6 level in a cell culture supernatant was measured using an enzyme-linked immunosorbent assay, in accordance with the manufacturer’s instruction. The experiment was repeated three times.

[8] = test system: SW620 cells; assay: Annexin V-FITC/PI binding assay (flow cytometry) in SW620; type: cell-based, human; conditions: IC50 concentration, 72 h
Experimental: as §1

[9] = test system: IL-6 in SW620 cells; assay: Interleukin-6 assay (ELISA) in SW620; type: cell-based, human; conditions: IC50 concentration, 72 h, ELISA of culture supernatant
Experimental: as §5

[10] = test system: HaCaT cells; assay: Annexin V-FITC/PI binding assay (flow cytometry) in HaCaT; type: cell-based, human; conditions: IC50 concentration, 72 h; span stated for compounds 12 and 13 together
Experimental: as §1

[11] = test system: ROS production in PC3, SW480, SW620 cells; assay: ROS detection, DCFH-DA and DHR-123 assay, cancer cell lines; type: cell-based, human; conditions: IC50 concentration; DCF and rhodamine fluorescence intensity
Experimental: (§6) ROS generation was assessed by the spectrofluorometric method using the 2′,7′-dichlorodihydrofluorescein diacetate (DCFH-DA) or dihydrorhodamine 123 (DHR-123). The method is based on the ROS-dependent oxidation of the compounds to fluorescent dichlorofluorescein (DCF) or rhodamine-123, respectively.[61] PC3, SW480, SW620, and HaCaT were seeded on to 96-well plates (5 × 10^4 cells per well) and allowed to adhere for 24 h. Then, cells were rinsed with PBS and incubated with DCFH-DA (5 μM) or DHR-123 (1 μM) for 30 min at 37 °C in the dark. […] A sample with H2O2 (1.5 mM) was a positive control, and a sample without any reagent was a negative control. Maximum excitation and emission spectra for DCF were 492 and 527 nm, and those for rhodamine-123 were 500 and 536 nm, respectively. The generation of H2O2 was measured by Microplate Spectrofluorometer BioTek Synergy (BioTek Instruments, USA) and expressed as fluorescence intensity (FI). Values from three experiments performed in triplicate were analyzed.

[12] = test system: ROS production in HaCaT cells; assay: ROS detection, DCFH-DA and DHR-123 assay, HaCaT; type: cell-based, human; conditions: IC50 concentration; for ROS level in HaCaT cells (in words): DCF and rhodamine fluorescence intensity; for time of treatment at which the amount of ROS in HaCaT cells was highest: measured after 1, 4, 12, 24 h
Experimental: as §6

[13] = test system: IL-6 in SW480 cells; assay: Interleukin-6 assay (ELISA) in SW480; type: cell-based, human; conditions: IC50 concentration, 72 h, ELISA of culture supernatant
Experimental: as §5

| Compound | percentage of late apoptotic PC3 cells [1] [%] | percentage of necrotic PC3 cells [1] [%] | percentage of necrotic SW480 cells [2] [%] | IC50 [3] [µM] | SW480 SI (selectivity index) [3] | IC50 [4] [µM] | IC50 [5] [µM] | SW620 SI (selectivity index) [5] | IC50 [6] [µM] | PC3 SI (selectivity index) [6] | inhibition of IL-6 release in PC3 cells, fold more effectively compared to control [7] [fold] | early apoptosis in SW620 cells [8] [%] | late apoptosis in SW620 cells [8] [%] | decrease of IL-6 concentration in SW620 cells compared to the control [9] [time] | late apoptosis in HaCaT cells [10] [%] | ROS level in cancer cell lines (in words) [11] | ROS level in HaCaT cells (in words) [12] | time of treatment at which the amount of ROS in HaCaT cells was highest [12] [h] | decrease of IL-6 concentration in SW480 cells compared to the control [13] [time] | percentage of late apoptotic SW480 cells [2] [%] |
| --- | --- | --- | --- | --- | --- | --- | --- | --- | --- | --- | --- | --- | --- | --- | --- | --- | --- | --- | --- | --- |
| CC[C@@H](C(=O)[C@@H](C)[C@@H](O)[C@H](C)CCc1ccc(C)c(O)c1C(=O)OCc1cc(=O)c(O)co1)[C@H]1O[C@](CC)([C@H]2CC[C@](O)(CC)[C@H](C)O2)C[C@@H]1C [Compound 7, LAS–Kojic Acid Conjugate] | 28.24 | 26.00 | 22.39 | 7.8 ± 0.09 | 0.8 | 6.3 ± 0.1 | 9.9 ± 0.08 | 0.6 | 3.8 ± 0.07 | 1.7 | ~1.2 |  |  |  |  |  |  |  |  |  |
| CC[C@@H](C(=O)[C@@H](C)[C@@H](O)[C@H](C)CCc1ccc(C)c(O)c1C(=O)OC[C@H]1O[C@@H](n2ccc(N)nc2=O)C(F)(F)[C@@H]1O)[C@H]1O[C@](CC)([C@H]2CC[C@](O)(CC)[C@H](C)O2)C[C@@H]1C [Compound 12, LAS–Gemcitabine Conjugate] | 39.92 | 40.31 | 42.85 | 12 ± 0.86 | 1.2 | 14 ± 0.22 | 3.6 ± 1.1 | 3.9 | 1.6 ± 1.2 | 8.8 |  | 14.53 | 14.79 | ~1.3 | 57.26 to 72.01 | significantly higher level of ROS | slightly elevated level of ROS | 4 | ~1.0 |  |
| CC[C@@H](C(=O)[C@@H](C)[C@@H](O)[C@H](C)CCc1ccc(C)c(O)c1C(=O)OCCC[P+](c1ccccc1)(c1ccccc1)c1ccccc1)[C@H]1O[C@](CC)([C@H]2CC[C@](O)(CC)[C@H](C)O2)C[C@@H]1C [Compound 13, LAS–TPP Conjugate] |  | 56.81 | 24.82 | 1.4 ± 1.5 | 2.3 | 3.2 ± 0.12 | 2.3 ± 2.2 | 1.4 | 1.8 ± 0.09 | 1.8 |  |  |  |  | 57.26 to 72.01 | significantly higher level of ROS | significantly higher level of ROS | 12 |  | 20.15 |
